According to PMC12628291 (Inorganic Chemistry, 2025):
Where two headings read alike, the source gives them in different places.

What was measured:
[1] = DLS particle size distribution in Tris-HCl buffer; type: physicochemical; conditions: 20 μM
From the text: Given the amphiphilic nature of the complexes, with the functionalized phenanthroline ligand serving as a lipophilic tail and the Ru(II) core serving as a hydrophilic headgroup, it was of interest to investigate the potential tendency of the complexes to form micelle-like aggregates in aqueous solutions. […] Our focus was to investigate the aggregation behavior in a purely aqueous environment, without the use of cosolvents such as DMSO. Since complexes 5–7 could not be solubilized under these conditions, they were not included in the DLS analysis.
The particle size distribution of the complexes was determined by dynamic light scattering (DLS) using a Particle Analyzer Litesizer 500 (Anton Paar, Austria) at 25 °C. 20 μM solutions of complexes 1–4 and of [Ru(bpy)3]-Cl2 in Tris-HCl buffer, as well as 20 μM solutions of complexes 1–4 in Gibco DMEM (Dulbecco’s Modified Eagle Medium with high glucose, L-glutamine, pyruvate, 10% FBS, and without phenol red), were analyzed by DLS. The experiments were performed in triplicate, yielding similar results.

[2] = UV-vis absorption, emission spectra and luminescence quantum yield; type: physicochemical; conditions: for Φ (luminescence quantum yield): air-equilibrated; for λem: excitation 450 nm
Method: We studied the absorption and emission properties of the complexes in different solvents including MeCN, MeOH, and Tris-HCl aqueous buffer (0.05 M, pH 7.4). Due to solubility limitations, only complexes 1–4 were studied in Tris-HCl aqueous buffer. Indicatively, the comparative UV–vis absorption and emission spectra of complexes 4 and 7 in MeCN at 298 K are presented in Figure e.
The photophysical data are summarized in Tables and , and all measurements were conducted in air-equilibrated solvents.
(§1) ^1H, ^1H–^1H COSY, and ^13C NMR spectra were recorded on a 500 MHz NMR spectrometer (Agilent). Absorption spectra were acquired by using a JASCO V-750 spectrophotometer. For recording the emission spectra, we used an Edinburgh Instruments FS5 spectrofluorometer equipped with a red-sensitive Hamamatsu R13456 photomultiplier tube (PMT) and a 150 W xenon arc lamp as the light source. All spectra were corrected for detector response using the correction files and software (Fluoracle) provided by the manufacturer. The luminescence quantum yields of the complexes were calculated using the optically dilute method with an air-equilibrated aqueous solution of [Ru(bpy)3]-Cl2 (Φem = 0.049, λex = 436 nm) as the standard solution. , Emission lifetime measurements were performed using an Edinburgh Instruments mini-τ lifetime spectrometer with a bandpass filter (±40 nm bandpass) at 650 nm. The excitation source was an Edinburgh Instruments picosecond pulsed LED (EPLED-320) with a peak wavelength of 326.8 nm and a pulse width of 910 ps. The detector was a thermoelectrically cooled, high-speed, red-sensitive photomultiplier tube (Hamamatsu H10720-01). The data were analyzed by using the software provided by the manufacturer (Fluoracle). For emission lifetime calculations, the experiments were performed in triplicate, yielding similar results. The MS spectra were acquired using an LC20AD Shimadzu connected to Shimadzu LCMS-2010EV, with a flow rate of 0.4 mL/min MeOH or MeCN + 0.1% formic acid. LCMS analysis was carried out on an Agilent 1260 Infinity with a Raptor C18 column (50 mm × 2.1 mm, 2.7 μm particle size). A two-minute gradient from 5% to 95% MeCN in water was used, supplemented with 0.1% formic acid.

[3] = Emission lifetime (time-resolved luminescence decay); type: physicochemical
Method: Given the changes in the aggregation profiles of the complexes in cell culture medium containing FBS, as observed by DLS analysis, we also examined their emission lifetimes under these conditions (Table and Figure S52F–J). For this analysis, an 80 μM solution of each complex was utilized to achieve an improved signal-to-background ratio. […] However, the emission decay behavior of complexes 2–4 differs markedly from that of the estrogen-free control and from that of [Ru(bpy)3]^2+. In a cell culture medium with 10% FBS, the decay profile of complex 1 can be fitted to a biexponential model, comprising a short-lived component (355 ns, 6.6% contribution), consistent with the monomeric species, and a long-lived component (672 ns, 93.4% contribution) attributable to the aggregated form. […] Consistent with the behavior observed in Tris-HCl buffer, the addition of MeCN to a solution of complex 3 in FBS-containing medium led to aggregate disruption once the MeCN content reached 30%, as evidenced by a decrease in emission lifetime to 436 ns, signaling the dominance of the nonaggregated form (Figure f). Overall, our findings collectively confirm that aggregation correlates with the observed emission enhancement in aqueous solutions and that complexes 1–4 predominantly exist as self-assembled micelle-like aggregates in the cell culture medium used for our cellular studies. Nevertheless, it cannot be unequivocally determined from these experiments whether the complexes preserve their aggregated form in the intracellular environment.
as §1

MCF-7 (ER+) cells [4] = experiment: MTS viability assay (dark and 457 nm light) in MCF-7; type: cell-based; conditions: for IC50: MCF-7, 457 nm for 12 min at 6 h, 24 h incubation, MTS; for SI = selectivity index, [IC50(ER‑)]light/[IC50(ER+)]light: MDA-MB-453 (ER-) vs MCF-7 (ER+)
Method: (§2) We determined the cytotoxicity of all the complexes using the well-established MTS assay against two breast cancer cell lines: MCF-7, which is ER+, and MDA-MB-453, which is ER-.
(§3) In this experiment, the cells were irradiated with blue light (457 nm) for 12 min.
(§4) MDA-MB-453 and MCF-7 cells were grown in high-glucose Dulbecco’s Modified Eagle Medium (DMEM) containing 10% fetal bovine serum at 37 °C with 5% CO2 in humidified air.
(§5) For viability experiments, cells were seeded at a density of 20,000 cells per well in Greiner-Bio black μClear plates. After 24 h, the corresponding ruthenium complexes were added at the appropriate concentrations (30 nM to 100 μM for complexes 1-4 and 30 nM to 20 μM for 5–7, < 1% DMSO) and allowed to incubate. For the phototoxicity experiments, the plate was removed at the six-hour time point and irradiated for 12 min using a Lumidox 457 nm 96-LED array set to 8 mA (2 mW/cm^2, a total of 1.2 J/s). After an overall 24 h incubation period, the media were replaced with fresh media containing an MTS/PMS mixture as per the Promega protocol (MTS: 3-(4,5-dimethylthiazol-2-yl)-5-(3-carboxymethoxyphenyl)-2-(4-sulfophenyl)-2H-tetrazolium; PMS: phenazine methosulfate). After an additional 4 h had passed, the absorbance at 490 nm (MTS) and 635 nm (background) was measured. Cell viability was calculated from the dose-response curve of the absorbance (MTS – background).

MDA-MB-453 (ER-) cells = experiment: MTS viability assay (dark and 457 nm light) in MDA-MB-453; type: cell-based; conditions: MDA-MB-453, 457 nm for 12 min at 6 h, 24 h incubation
Method: as §2, §3, §4, §5

[5] = test system: MCF-7 (ER+) and MDA-MB-453 (ER−) cells; experiment: Cellular uptake of ruthenium by ICP-MS; type: cell-based; conditions: 20 μM, 6 h, MCF-7 vs MDA-MB-453
Method: Thus, the cellular uptake of complexes 3 and 4 was evaluated and compared to the control complex 1 in ER+ (MCF-7) and ER– (MDA-MB-453) cell lines using inductively coupled plasma mass spectrometry (ICP-MS) (Figure b). […] This trend is consistent with its increased lipophilicity and the brighter red luminescence observed by microscopy for this complex. It is well established that lipophilicity can enhance membrane permeability and cellular internalization.
Cells were seeded at the appropriate density in 6-well plates (1 × 10^6 cells per well for MDA-MB-453 and 400,000 cells per well for MCF-7) and allowed to adhere for 24 h. Ruthenium complexes were added to the wells by direct dilution of a 10 mM DMSO stock solution to yield a final concentration of 20 μM in culture medium. After 6 h of incubation, the medium was removed, and the cells were washed three times with phosphate-buffered saline (PBS) to eliminate extracellular ruthenium. Cells were subsequently detached using trypsin, collected by centrifugation, and counted. […] The monitored isotope was 101Ru. A set of ruthenium calibration standards was used to establish and model the linear relationship between signal and concentration before the samples were injected, signal measured, and averaged across three consecutive signal acquisitions. The amount of metal detected in the cell samples was normalized to ppb per 1,000,000 cells.

MCF-7 (ER+) cells [6] = experiment: Luminescence microscopy of treated ER+ cells; type: cell-based; conditions: Figure S62, 6 h incubation
Method: 3 Microscopy imaging of cells incubated with complex 3 (20 μΜ) and complex 4 (10 μΜ) for 6 h: brightfield (left), photosensitizer luminescence (middle), and overlaid (right) images. (b) Cellular uptake by ICP-MS of complexes 1, 3, and 4 (20 μM, 6 h) in MCF-7 (ER+) and MDA-MB-453 (ER−) cells.
For imaging experiments, cells were seeded at a density of 20,000 cells per well in Greiner-Bio black μClear plates. After 24 h, the corresponding ruthenium complexes were added at the appropriate concentrations. After 6 h, the cells were washed 3 times with media, and the media were replaced with phenol-red-free media. Compounds were imaged on an Eclipse-Ti2 Widefield system (Nikon), equipped with a Prime 95B sCMOS camera (Teledyne), pE-400 LED light source (CoolLED), a 20× or 40× objective, and emission filters for green (515/30 nm), orange (600/50 nm), red (641/75 nm), and far-red (705/72 nm). The bright-field channel was used to autofocus each well, after which the complexes were excited using a 450 nm laser and the red emission channel collected.

[7] = design: method as in doi:10.1021/ja00432a028; conditions: H2O; cited from earlier work
[8] = in water; literature value, reference number not given; cited from earlier work
[9] = Tris-HCl buffer (0.05 M, pH 7.4), 298 K
[10] = Tris-HCl buffer (0.05 M, pH 7.4)
[11] = cell culture medium (DMEM, 10% FBS, no phenol red), 80 μM
[12] = cell culture medium with 10% FBS, biexponential fit

SMILES | aggregate size (DLS, particle size distribution by intensity) [1] | Φ (luminescence quantum yield) ([2]; MeCN (298 K)) [%] | λabs [2, 9] [nm] | λem [2, 9] [nm] | τ1 ([3]; MeCN) [ns] | τ1 ([3]; MeOH) [ns] | τ1 [3, 10] [ns] | τ1 [3, 11] [ns] | IC50 (MCF-7 (ER+) cells [4]) [µM] | SI = selectivity index, [IC50(ER‑)]light/[IC50(ER+)]light (MCF-7 (ER+) cells [4]) | IC50 (MDA-MB-453 (ER-) cells) [µM] | further results
CCCCc1cn(-c2cc3cccnc3c3ncccc23)nn1.[Cl-].[Cl-].[Ru+2].c1ccc(-c2ccccn2)nc1.c1ccc(-c2ccccn2)nc1 [Complex 1, [Ru(bpy)2(L-1a)]Cl2] | around 100 nm | 2.1 | 449 | 635 | 165 | 225 | 599 | 355 | > 100 | NPD ^b | > 100 | ε ([2]; MeCN (298 K)): 1.2 × 10^4 M^–1 cm^–1; λabs ([2]; MeCN (298 K)): 450 nm; λem ([2]; MeCN (298 K)): 625 nm; ε [2, 9]: 1.1 × 10^4 M^–1 cm^–1; Φ (luminescence quantum yield) [2, 9]: 5.6%; contribution of τ1 (short-lived component) to the decay ([3]; Tris-HCl buffer, biexponential fit): less than 1%; τ2 [3, 11]: 672 ns; contribution of τ1 to the decay [3, 12]: 6.6%; contribution of τ2 to the decay [3, 12]: 93.4%; uptake in ER+ cells compared to ER– cells (ICP-MS) [5]: slightly higher accumulation in ER– cells than in ER+ cells; intracellular luminescence, ER+ versus ER– cells (microscopy) (MCF-7 (ER+) cells [6]): no notable difference in luminescence between the two cell lines
[Cl][Ru][Cl].c1ccc(-c2ccccn2)nc1.c1ccc(-c2ccccn2)nc1.c1ccc(-c2ccccn2)nc1 [[Ru(bpy)3]Cl2, reference compound] | no visible aggregates were observed | 1.6 | 453 | 630 | 156 | 205 | 329 | 357 | > 100 | NPD ^b | > 100 | Φ (luminescence quantum yield) [7]: 4.9^55%; 1O2 quantum yield (ΦΔ) [8]: 0.41
